We go through 10 compounds from patent US20230233690A1, “ANDROGEN RECEPTOR PROTEIN DEGRADERS” (THE REGENTS OF THE UNIVERSITY OF MICHIGAN, priority 2020, published 2023).

Data set [1] relates to AR protein. Briefly: Western blotting of AR protein degradation in MDA-MB-453 cells. Type of data set: cell-based. As to conditions: 24 hr treatment. The arrangement: key: A: >90% degradation (24 hr treatment); B: >50% degradation but <90% (24 hr treatment); C: >10% degradation but <50% (24 hr treatment); D: No significant degradation (24 hr treatment). As to the method:
(§1) The appropriate cell line, e.g., prostate cancer LNCaP, Vcap, or MDA-MB-453 cell line, was treated with Compounds of the Disclosure. The treated cells were lysed with RIPA buffer. The AR level in the cell lysates was examined by western blotting and a specific AR antibody (ab194196, Abcam, Cambridge, Mass. 02139) with concentration of 1:20,000. GAPDH was used as a loading control.
(§2) Bands were quantified with ImageJ software. The relative numbers of each band obtained from normalization with its corresponding GAPDH level were compared with Prism 8 software. The DC50 values were produced from Prism 8, and the DC90 values were calculated with an equation=Bottom+(Top−Bottom)/(1+10^((Log EC50−X)*HillSlope) based on DC50 and Hillslope values.
(§3) The amount of AR protein degradation in LNCaP, VCap, and MDA-MB-453 cells caused representative Compounds of the Disclosure at the concentrations indicated is presented in Table 4 and Table 5.

A short description of data set [2]: PK parameters in male ICR mice. The format is in vivo. The method, then:
(§4) The pharmacokinetics (PK) of representative Compounds of the Disclosure were evaluated in mice or rats to provide an assessment of their oral bioavaibility. All animal experiments were performed under the guidelines of the University of Michigan Committee for Use and Care of Animals and using an approved animal protocol.

Data set [3] is described as follows: PK parameters in male SD rats. Type of data set: in vivo. As to conditions: for AUC(0-t) / clearance / Vd / Cmax / half-life: rat, in vivo; for clearance: read-out: Cl-obs; for Vd: read-out: Vss. The method, then: as §4
Data set [4] addresses T1, AR protein (Homo sapiens, UniProt P10275, T878A).
T1 construct: endogenous in cells; host or cells: LNCaP
T1 sequence (P10275 1-920 T878A): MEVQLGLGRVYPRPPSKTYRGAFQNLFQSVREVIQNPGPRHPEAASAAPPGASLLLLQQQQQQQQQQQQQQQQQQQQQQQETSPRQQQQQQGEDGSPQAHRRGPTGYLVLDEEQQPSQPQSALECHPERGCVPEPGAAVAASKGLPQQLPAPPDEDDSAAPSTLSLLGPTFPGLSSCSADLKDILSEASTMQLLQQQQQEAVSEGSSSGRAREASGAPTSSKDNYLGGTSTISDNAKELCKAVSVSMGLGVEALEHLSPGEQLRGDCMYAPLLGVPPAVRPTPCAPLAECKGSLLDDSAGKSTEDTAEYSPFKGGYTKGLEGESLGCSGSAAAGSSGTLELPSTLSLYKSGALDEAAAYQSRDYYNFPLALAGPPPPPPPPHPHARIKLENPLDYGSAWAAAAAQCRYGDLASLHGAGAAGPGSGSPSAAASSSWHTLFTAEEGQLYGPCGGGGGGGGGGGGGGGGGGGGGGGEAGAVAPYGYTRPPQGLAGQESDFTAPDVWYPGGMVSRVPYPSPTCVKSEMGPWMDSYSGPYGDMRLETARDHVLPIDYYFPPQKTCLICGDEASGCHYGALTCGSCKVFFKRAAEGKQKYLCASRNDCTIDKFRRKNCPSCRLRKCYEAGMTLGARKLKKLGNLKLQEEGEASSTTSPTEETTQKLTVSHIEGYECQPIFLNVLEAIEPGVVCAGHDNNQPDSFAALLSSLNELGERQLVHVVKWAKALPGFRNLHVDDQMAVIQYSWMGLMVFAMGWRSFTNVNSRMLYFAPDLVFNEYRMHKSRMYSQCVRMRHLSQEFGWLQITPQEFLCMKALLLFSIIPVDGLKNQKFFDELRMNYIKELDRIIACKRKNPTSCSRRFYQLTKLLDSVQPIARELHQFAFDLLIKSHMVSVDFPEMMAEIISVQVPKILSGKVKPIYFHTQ
Briefly: Western blotting of AR protein degradation in LNCaP cells. Type of data set: cell-based. As to conditions: 24 hr treatment. The method, then: as §1, §2, §3
In general terms: In western blotting, separated proteins are transferred to a membrane and probed.

`N#Cc1ccc(OC2CCC(Oc3ccc(C#CC4CCN(CC5CCN(c6ccc7c(c6)C(=O)N(C6CCC(=O)NC6=O)C7=O)CC5)CC4)cc3)CC2)cc1Cl` (stereo not shown) [compound 51]: in the data set with AR protein [1], the “AR protein degradation MDA-MB-453 10 nM” value is given as “D” and the “AR protein degradation MDA-MB-453 100 nM” value is “D”.
In the case of `N#Cc1ccc(O[C@H]2CC[C@H](Oc3ccc(C4CCN(CC5CCN(c6ccc7c(c6)C(=O)N(C6CCC(=O)NC6=O)C7=O)CC5)CC4)cc3)CC2)cc1Cl` (stereo partly shown) [compound 52], in the data set with AR protein [1], the “AR protein degradation MDA-MB-453 10 nM” value is on record as “D” and the “AR protein degradation MDA-MB-453 100 nM” value is recorded as “D”.
As to `N#Cc1ccc(O[C@@H]2CCC[C@@H](Oc3ccc(N4CCN(CC5CCN(c6ccc7c(c6)C(=O)N(C6CCC(=O)NC6=O)C7=O)CC5)CC4)cc3)C2)cc1Cl` (stereo partly shown) [compound 55], the “AR protein degradation MDA-MB-453 100 nM” value in the data set on AR protein [1] was “C (>10% degradation but <50% (24 hr treatment))”.
The same measure, in the same setting: the entry for `N#Cc1ccc(O[C@@H]2CCC[C@@H](Oc3ccc(C4CCN(CC5CCN(c6cccc7c6C(=O)N(C6CCC(=O)NC6=O)C7=O)CC5)CC4)cc3)C2)cc1Cl` (stereo partly shown) [compound 54] is “C (>10% degradation but <50% (24 hr treatment))”.
As a reminder, the half-life is the time in which the quantity being followed falls by half. As usually defined, the Cmax is the maximum level reached in the sampled fluid or tissue. On to `CC1(C)[C@H](NC(=O)c2ccc(N3CCN(C4CN(c5ccc6c(c5)C(=O)N(C5CCC(=O)NC5=O)C6=O)C4)CC3)cc2)C(C)(C)[C@H]1Oc1ccc(C#N)c(Cl)c1` (stereo partly shown) [Cpd. No. 113, N-((1r,3r)-3-(3-chloro-4-cyanophenoxy)-2,2,4,4-tetramethylcyclobutyl)-4-(4-(1-(2-(2,6-dioxopiperidin-3-yl)-1,3-dioxoisoindolin-5-yl)azetidin-3-yl)piperazin-1-yl)benzamide], for which the F in data set [2] (PO 5 mg/kg) amounted to 62.2%; in data set [3] (PO 5 mg/kg), 25.0%. For the same compound, the AUC(0-t) in data set [2] (mouse, in vivo, IV 2 mg/kg, read-out: AUC0-t) turned out to be 14600 ng·h/mL; in data set [2] (mouse, in vivo, PO 5 mg/kg, read-out: AUC0-t) it was 22700 ng·h/mL; in data set [3] (IV 2 mg/kg), 9140 ng·h/mL; in data set [3] (PO 5 mg/kg), 5720 ng·h/mL. Besides, the clearance was 1.7 mL/min/kg in data set [2] (mouse, in vivo, IV 2 mg/kg, read-out: Cl-obs) and 3.1 mL/min/kg in data set [3] (IV 2 mg/kg). Further, the Vd in data set [2] (mouse, in vivo, IV 2 mg/kg, read-out: Vss) is 1.7 L/kg; in data set [3] (IV 2 mg/kg), 2 L/kg. The half-life was 10.3 h in data set [2] (mouse, in vivo, PO 5 mg/kg) and 10.4 h in data set [3] (PO 5 mg/kg). Further, the Cmax was 1820 ng/mL in data set [2] (mouse, in vivo, PO 5 mg/kg, read-out: Cmax) and 414 ng/mL in data set [3] (PO 5 mg/kg).
Take `N#Cc1ccc(O[C@H]2CC[C@H](Oc3ccc(C4CCN(CC5CCN(c6cccc7c6C(=O)N(C6CCC(=O)NC6=O)C7=O)CC5)CC4)cc3)CC2)cc1Cl` (stereo partly shown) [compound 53]: in the data set with AR protein [1], the “AR protein degradation MDA-MB-453 10 nM” value is reported as “D” and the “AR protein degradation MDA-MB-453 100 nM” value was “C (>10% degradation but <50% (24 hr treatment))”.
One may read the Vss as a proportionality between amount in the body and measured concentration, not a real space. Regarding `CC1(C)[C@H](NC(=O)c2ccc(N3CCN(C4CCN(c5ccc6c(c5)C(=O)N(C5CCC(=O)NC5=O)C6=O)CC4)CC3)cc2)C(C)(C)[C@H]1Oc1ccc(C#N)c(Cl)c1` (stereo partly shown) [Cpd. No. 114, N-((1r,3r)-3-(3-chloro-4-cyanophenoxy)-2,2,4,4-tetramethylcyclobutyl)-4-(4-(1-(2-(2,6-dioxopiperidin-3-yl)-1,3-dioxoisoindolin-5-yl)piperidin-4-yl)piperazin-1-yl)benzamide], in data set [2] (IV 2 mg/kg), the AUC(0-t) came out at 15758.8 ng·h/mL, the Cl-obs is 1.7 mL/min/kg and the Vss is reported as 1.5 L/kg. In data set [2] (PO 5 mg/kg), this compound gave an AUC(0-t) of 14587.7 ng·h/mL, a Cmax of 980.1 ng/mL, an F of 37.0% and a T1/2 of 11.2 h. In data set [3] (PO 5 mg/kg), this compound gave an F of 11.4%, an AUC(0-t) of 4160 ng·h/mL, a Cmax of 100 ng/mL and a half-life of 8.9 h. In data set [3] (IV 2 mg/kg), the AUC(0-t) was found to be 1190 ng·h/mL, the clearance turned out to be 7.7 mL/min/kg and the Vd was 2.5 L/kg.
As to `CC1(C)[C@H](NC(=O)c2ccc(N3CCN(CCCCCOc4cccc5c4CN(C4CCC(=O)NC4=O)C5=O)CC3)nc2)C(C)(C)[C@H]1Oc1ccc(C#N)c(Cl)c1` (stereo partly shown) [compound 50], the “AR protein degradation LNCAP 10 nM” value on AR protein [4] (10 nM) was “A (>90% degradation (24 hr treatment))”. For the same compound, at AR protein [4] (100 nM), the “AR protein degradation LNCAP 100 nM” value was “A (>90% degradation (24 hr treatment))”.
Regarding `CC1(C)[C@H](NC(=O)c2ccc(N3CCC(CN4CCN(c5ccc6c(c5)C(=O)N(C5CCC(=O)NC5=O)C6=O)CC4)CC3)cc2)C(C)(C)[C@H]1Oc1ccc(C#N)c(Cl)c1` (stereo partly shown) [compound 190, N-((1r,3r)-3-(3-chloro-4-cyanophenoxy)-2,2,4,4-tetramethylcyclobutyl)-4-(4-((4-(2-(2,6-dioxopiperidin-3-yl)-1,3-dioxoisoindolin-5-yl)piperazin-1-yl)methyl)piperidin-1-yl)benzamide], in data set [2] (IV 1 mg/kg), the AUC(0-t) was 2565 ng·h/mL, the Cl-obs amounted to 3.2 mL/min/kg and the Vss came out at 6.8 L/kg. In data set [2] (PO 3 mg/kg), this compound displayed an AUC(0-t) of 2550.1 ng·h/mL, a peak concentration (Cmax) of 134.4 ng/mL, an F of 33.1% and a T1/2 of 67.8 h.
In data set [2] (IV 2 mg/kg), `CC1(C)[C@H](NC(=O)c2ccc(N3CCN(CC4CN(c5ccc6c(c5)C(=O)N(C5CCC(=O)NC5=O)C6=O)C4)CC3)cc2)C(C)(C)[C@H]1Oc1ccc(C#N)c(Cl)c1` (stereo partly shown) [Cpd. No. 112, N-((1r,3r)-3-(3-chloro-4-cyanophenoxy)-2,2,4,4-tetramethylcyclobutyl)-4-(4-((1-(2-(2,6-dioxopiperidin-3-yl)-1,3-dioxoisoindolin-5-yl)azetidin-3-yl)methyl)piperazin-1-yl)benzamide] came in with an AUC(0-t) of 11034.8 ng·h/mL, a Cl-obs of 1.9 mL/min/kg and a distribution volume (Vss) of 2.7 L/kg. In data set [2] (PO 5 mg/kg), the AUC(0-t) was 20599.8 ng·h/mL, the Cmax turned out to be 1389.4 ng/mL, the F turned out to be 74.7% and the T1/2 is 12.0 h.
